Experimental data as given in PMC12392461, “Beyond Estrogenicity: A Comparative Assessment of Bisphenol A and Its Alternatives in In Vitro Assays Questions Safety of Replacements” (Environmental Science & Technology, 2025).
Like-named read-outs stand apart in the source and are kept apart here.

How the values were obtained:
SH-SY5Y cells = settings: for IC10, SH-S5Y5, NOI: cytotoxicity, NOI assay cells
Method: Cell culture conditions and bioassay protocols including response detection are provided in Text S2.1–2.4 and Table S3. − Cell viability was determined from cell confluency using an IncuCyte S3 Live-Cell Analysis System (Sartorius AG, Essen, Germany) before and after exposure, except for SH-SY5Y cells (live–dead staining with Nuclear Green LcS1 and propidium iodide, Abcam, UK). For metabolic activation experiments, cell viability was assessed using the ToxBLAzer DualScreen Kit (Thermo Fisher Scientific) to capture the remaining toxicity in ERα-UAS-bla GripTite after treatment with the aCYP catalyst (details in Text S2.4). […]
We measured the cytotoxicity of BPA and its alternatives in HEK293H (PPARγ), HEK293T (ERα), H4IIe (AhR CALUX), MCF7 (ARE/MMP), and differentiated SH-SY5Y cells (Table S6). […]
medium, supplemented with 2% B-27 Supplement and 2 mM GlutaMAX Supplement. SH - SY5Y cells were differentiated with 10 µM all-trans retinoic acid prior to the assay.
S2.2: Cell Seeding and Incubation. For all bioassays, cell suspensions in the respective assay medium were dispensed into each well of 384-well plates using a MultiFlo Dispenser (Biotek, (now Agilent), Winooski, VT, U.S.). After seeding, the plates were incubated at 37° C and 5% […]
NYC, U.S.) for AhR: 3250 cells/well. Black Collagen I coated plates were used (Product No.
S2.3: Chemical Dosing and Assay Analysis Procedures. The dosing procedure and high-throughput assay workflow have been described in detail before. 9 The dosing concentrations […]
Stock solutions were then either added directly to the respective cell culture medium or evaporated under nitrogen, followed by replenishment with fresh medium. The final solvent content in each well was kept below 1% for methanol, 0% for acetonitrile.
Dosing plates were prepared as 11 -step serial dilutions using a Hamilton Microlab Star robotic system (Hamilton, Bonaduz, Switzerland), and chemicals were dosed in duplicates by transferring 10 μL twice from the dosing plates to the cell plates . After quantifying cell confluency as described in S2. 4., the exposed cells were incubated at 37° C and 5% CO₂ for an additional 24 h. All chemicals were tested in all assays with at least three independent […]
S2.4: Cell Viability Measurement s and bioanalytical protocols . The confluency as a measure of cell viability was determined with an IncuCyte S3 Live -Cell Analysis System (Sartorius AG, Essen, Germany). With this method the confluency of cells in a microscopy image are normalized to control wells without cells and compared before and after 24 hours of exposure.
This method has been described previously 13. Cell viability of SH-SY5Y cells was measured […]
propidium iodide (PI, Abcam, Cambridge, U.K.).14 Nuclear Green LCS1 is a membrane-permeable dye that stains the nuclei of all cells, whereas PI only enters cells with compromised membrane integrity (non-viable cells). After staining, live cells show green nuclei without red fluorescence, while dead cells display both green and red nuclear fluorescence due to PI […]
intercalation. […]

physchem = settings: for Double negative form (pH = 7.40) / Negative form (pH = 7.40) / Neutral form (pH = 7.40) / αneutral % (fraction of neutral species): from experimental pKa; for αneutral % (fraction of neutral species): pH 7.4; for pKa: pKa (Acid)
Method: Physicochemical properties provide input parameters for the baseline toxicity model. Acidity constants (pK a) and octanol–water partition constants of the neutral species (K ow) were measured with a Sirius T instrument from Pion Inc. (Sussex, UK) (Text S1.2 and Table S1). A detailed description of the pK a and K ow measurements can be found in literature. , […]
S1.2: pKa and log Kow measurements […]
titrator (Pion Inc., Sussex, U.K.). A detailed description of the experimental procedure is available in the literature.1 In brief, each sample was prepared by mixing 5 µL of a 10 mM dimethyl sulfoxide (DMSO) stock solution with 25 µL of a phosphate buffer solution (14.4 mM […]
A reference vial containing 5 µL of DMSO
(Roth, A994-100 ML) and 25 µL of phosphate buffer was analyzed alongside each sample.
The pKa values were determined using the automated UV-metric pKa protocol within the Sirius T3 Control software (version 2.0.0.0.). Each sample was subjected to three consecutive […]
from 2 to 12 by stepwise addition of 0.5 M HCl or 0.5 M potassium hydroxide while recording […]
UV absorbance. […]
To ensure reproducibility, measurements were conducted on at least two

[1] = Abiotic CYP (aCYP) oxidation, remaining parent compound (Cparent-Ratio); settings: for Cparent-Ratio Rep.1 %: Table S9, replicate 1; for Cparent-Ratio Rep.2 %: Table S9, replicate 2
Method: The mixtures were adjusted to a final volume of 100 μL with acetonitrile (ACN). The reaction mix was incubated for 15 min at 30 °C and 1000 rpm on a Bioshake iQ orbital shaker from QInstruments (Jena, Germany). Additionally, a mixture without test compounds was prepared as a control. Subsequently, 10 μL of the reaction mixture was transferred into a conical dosing vial and evaporated under a nitrogen flow.
For chemical analysis, 10 μL of the reaction mixture was concentrated under vacuum (CentriVap, Labconco, Kansas City, MO, USA), diluted to 1 mg/L in ACN or ethyl acetate. The chemical analysis of the reaction mixtures was performed using liquid chromatography (LC) and gas chromatography (GC) coupled with various detection techniques, preferably Multiple Reaction Monitoring (MRM). Data acquisition and processing were carried out using the software MassHunter. Quantification was based on external calibrations.
The Cparent-Ratio quantifies the extent of oxidation of the parent compound after the abiotic CYP reaction. It was calculated as the ratio of the parent compound concentration after oxidation (C parent, after oxidation) to its concentration before oxidation (C parent, before oxidation) as shown in eq . […] 8 Cparent‐Ratio=Cparent,after oxidation/Cparent,before oxidation

[2] = NOI bioassay cytotoxicity, dosing range all
[3] = NOI bioassay cytotoxicity, dosing range all, linear model
[4] = NOI bioassay cytotoxicity, dosing range all, log-logistic model
[5] = Table S9, loss of parent after aCYP oxidation
[6] = Table S9, mean of two replicate experiments
[7] = Table S9, replicate 1, as fraction
[8] = Table S9, replicate 2, as fraction
[9] = Table S11, measured simultaneously with bioassay

Row | Compound | IC10, linear transformed (SH-SY5Y cells; [2]) | IC10, linear (SH-SY5Y cells; [3]) | logIC10 (SH-SY5Y cells; [4]) | IC10, SH-S5Y5, NOI (SH-SY5Y cells) | pKa (Acid) (physchem) | Double negative form (pH = 7.40) (physchem) | Negative form (pH = 7.40) (physchem) | Neutral form (pH = 7.40) (physchem) | αneutral % (fraction of neutral species) (physchem) | pKa (physchem) | further results
1 | Oc1ccc(Cc2ccc(O)cc2)cc1 [BPF, Bis(4-hydroxyphenyl)methane] | 5.69E-04 | 5.56E-04 | -3.24 | 569 µM | 10.27 | 0.000993% | 0.736% | 99% | 99% | 9.53 | –
2 | CC(C)(c1ccc(OCC2CO2)cc1)c1ccc(OCC2CO2)cc1 (stereo not shown) [BADGE, Bisphenol A diglycidyl ether] | 5.73E-05 | 5.39E-05 | -4.24 | 57.3 µM | – | 0% | 0% | 100% | 100% | – | Toxic ratio (TR) TRNOI (SH-SY5Y cells; against baseline cytotoxicity): 0.32
3 | CC(C)CC(C)(c1ccc(O)cc1)c1ccc(O)cc1 [BP-MIBK, 4,4'-(1,3-Dimethylbutylidene)diphenol] | – | – | – | – | – | – | – | – | – | – | IC10, linear (SH-SY5Y cells): no cytotoxicity; logIC10 (SH-SY5Y cells; human, 24 h): -4.10
4 | Cc1cc(Cc2cc(C)c(O)c(C)c2)cc(C)c1O [TMBPF, Bis(3,5-dimethyl-4-hydroxyphenyl)methane] | 1.27E-05 | 1.62E-05 | -4.90 | 12.7 µM | – | – | – | – | – | – | Toxic ratio (TR) TRNOI (SH-SY5Y cells; against baseline cytotoxicity): 0.73; % Loss [1, 5]: 31%; Cparent-Ratio Mean [1, 6]: 0.69; Cparent-Ratio Rep.1 % [1]: 58.94%; Cparent-Ratio Rep.1 [1, 7]: 0.59; Cparent-Ratio Rep.2 % [1]: 79.26%; Cparent-Ratio Rep.2 [1, 8]: 0.79; % Loss ([1]; Table S11): 56%; Cparent-Ratio Mean [1, 9]: 0.44; Cparent-Ratio Rep.1 [1, 9]: 0.29; Cparent-Ratio Rep.2 [1, 9]: 0.59
5 | CC1(C)[C@H](O)C(C)(C)[C@H]1O [t-TMCD, trans-2,2,4,4-Tetramethyl-1,3-cyclobutanediol] | – | – | – | – | – | – | 1e-6% | 100% | 100% | – | pKa (physchem; phosphate buffer with […] KCl, Sirius T3 titrator, experimental, this study): 15.4; % Loss [1, 5]: 0.48%; Cparent-Ratio Mean [1, 6]: 1.00; Cparent-Ratio Rep.1 % [1]: 90.48%; Cparent-Ratio Rep.1 [1, 7]: 0.90; Cparent-Ratio Rep.2 % [1]: 108.56%; Cparent-Ratio Rep.2 [1, 8]: 1.09
6 | O=S(=O)(c1ccc(O)cc1)c1ccc(O)cc1 [BPS, 4,4'-Sulfonyldiphenol] | – | 1.85E-04 | -3.71 | 195 µM | 8.16 | 9% | 52% | 39% | 39% | 7.28 | –
7 | CC1(C)[C@H](O)C(C)(C)[C@H]1O [Trans TMCD] | – | no cytotoxicity | no cytotoxicity | – | – | – | – | – | – | – | –
8 | CC(C)(c1cc(Cl)c(O)c(Cl)c1)c1cc(Cl)c(O)c(Cl)c1 [TCBPA, 2,2',6,6'-Tetrachlorobisphenol A] | – | 3.70E-08 | no cytotoxicity | – | 8.13 | 11% | 60% | 29% | 29% | 7.08 | –
9 | CCC(C)(c1ccc(O)cc1)c1ccc(O)cc1 [BPB, 4,4'-(Butane-2,2-diyl)diphenol] | 1.67E-04 | 2.31E-04 | -3.78 | 167 µM | 10.33 | 0.000865% | 0.736% | 99% | 99% | 9.53 | Toxic ratio (TR) TRNOI (SH-SY5Y cells; against baseline cytotoxicity): 0.10
10 | O=S(=O)(c1ccc(O)cc1)c1ccccc1O [2,4-BPS, 2,4'-Dihydroxydiphenyl sulfone] | – | – | – | – | 8.43 | 5% | 52% | 43% | 43% | 7.31 | Toxic ratio (TR) TRNOI (SH-SY5Y cells; human, 24 h): 1.29; logIC10 (SH-SY5Y cells; human, 24 h): -3.31
11 | CC(c1ccc(O)cc1)c1ccc(O)cc1 [BPE, 4,4′-Ethylidenbisphenol] | 2.79E-04 | 5.29E-04 | -3.55 | 279 µM | 9.99 | 0.00576% | 2.24% | 98% | 98% | 9.04 | –
12 | CC(c1ccccc1)(c1ccc(O)cc1)c1ccc(O)cc1 [BPAP, 4,4'-(1-Phenylethylidene)bisphenol] | 1.06E-04 | no cytotoxicity | -3.97 | 106 µM | 9.99 | 0.00503% | 2% | 98% | – | 9.1 | –
13 | Oc1ccc(C(c2ccc(O)cc2)(C(F)(F)F)C(F)(F)F)cc1 [BPAF, 4,4'-(1,1,1,3,3,3-Hexafluoropropane-2,2-diyl)diphenol] | 6.64E-05 | 7.35E-05 | -4.18 | 66.4 µM | 8.73 | 0.0417% | 4.47% | 95% | – | 9.43 | –
